Results as given in patent US20230086702A1, “SUBSTITUTED 2-AMINO-PYRAZOLYL-[1,2,4]TRIAZOLO[1,5A]PYRIDINE DERIVATIVES AND USE THEREOF” (The Johns Hopkins University, priority 2019, published 2023).

Assays:
LZK = target: T1, LZK (Homo sapiens, UniProt O43283); assay: LZK biochemical assay (TR-FRET, MKK7 phosphorylation); settings: LZK catalytic domain, MKK7 substrate, 15 μM ATP
T1 construct: 10 nM LZK, catalytic domain, Carna Biosiences in assay buffer; purchased Carna Biosciences ('Carna Biosiences' [sic])
T1 sequence (O43283 168-409 limits assumed): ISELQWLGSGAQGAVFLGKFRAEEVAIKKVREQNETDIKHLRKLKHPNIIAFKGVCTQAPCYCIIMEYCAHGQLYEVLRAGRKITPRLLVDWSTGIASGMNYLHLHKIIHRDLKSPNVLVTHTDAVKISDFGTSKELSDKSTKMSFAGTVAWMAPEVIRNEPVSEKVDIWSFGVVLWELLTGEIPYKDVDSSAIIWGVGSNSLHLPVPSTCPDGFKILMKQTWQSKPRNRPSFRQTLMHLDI

DLK = target: T2, DLK (Homo sapiens, UniProt Q12852); assay: DLK biochemical assay (TR-FRET, MKK7 phosphorylation); settings: DLK catalytic domain, MKK7 substrate, 60 μM ATP
T2 construct: 10 nM DLK, catalytic domain, Carna Biosiences; purchased Carna Biosciences ('Carna Biosiences' [sic])
T2 sequence (Q12852 125-366 limits assumed): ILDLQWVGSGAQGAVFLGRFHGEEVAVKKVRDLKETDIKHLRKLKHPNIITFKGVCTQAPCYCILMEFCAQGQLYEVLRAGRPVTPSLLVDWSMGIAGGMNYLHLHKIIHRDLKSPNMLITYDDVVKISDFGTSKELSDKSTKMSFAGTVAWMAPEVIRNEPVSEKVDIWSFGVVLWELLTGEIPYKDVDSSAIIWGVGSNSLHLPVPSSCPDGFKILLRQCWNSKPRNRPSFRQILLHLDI
How it was run: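 TR-FRET read-out (ratio of 665 nm acceptor to Eu donor channel) tracks MKK7 T275/S277 phosphorylation by DLK, using Eu-labelled anti-phospho-MKK7 and XL665-labelled anti-His on His-MKK7. Reactions were stopped and detected in pH 7.5 Tris buffer containing 100 mM EDTA, 100 mM NaCl, 200 mM KF and 0.01% Tween 20.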

IC50 (LZK)	IC50 (DLK)	Compound
74 nM	8.8 nM	CC[C@H](C)NC(=O)c1cc(-c2cnn(C(c3cncc(Cl)c3)C(C)C)c2)cn2nc(N)nc12 (single isomer, unassigned) [Example I-62]
5.2 nM	0.4 nM	CC[C@H](C)NC(=O)c1cc(-c2cnn(C(c3cncc(Cl)c3)C(C)C)c2)cn2nc(N)nc12 (single isomer, unassigned) [Example I-63]
33 nM	25 nM	CCC(c1ccc(C(F)F)nc1)n1cc(-c2cc(C(=O)N[C@@H](C)CC)c3nc(N)nn3c2)cn1 (single isomer, unassigned) [Example I-65]
4.1 nM	0.8 nM	CCC(c1ccc(C(F)F)nc1)n1cc(-c2cc(C(=O)N[C@@H](C)CC)c3nc(N)nn3c2)cn1 (single isomer, unassigned) [Example I-66]
43 nM	14 nM	CC[C@H](C)NC(=O)c1cc(-c2cnn(C(c3ccc(C(F)F)nc3)C(C)C)c2)cn2nc(N)nc12 (single isomer, unassigned) [Example I-68]
3.9 nM	1 nM	CC[C@H](C)NC(=O)c1cc(-c2cnn(C(c3ccc(C(F)F)nc3)C(C)C)c2)cn2nc(N)nc12 (single isomer, unassigned) [Example I-69]
4.5 nM	1.4 nM	CC[C@H](C)NC(=O)c1cc(-c2cnn([C@@H](CC)c3ccc(C(F)(F)F)nc3)c2)cn2nc(N)nc12 (single isomer, unassigned) [Example I-71]
16 nM	10 nM	CC[C@H](c1ccc(C(F)(F)F)nc1)n1cc(-c2cc(C(=O)N[C@@H](C)CC)c3nc(N)nn3c2)cn1 (single isomer, unassigned) [Example I-72]
16 nM	10 nM	CC[C@H](C)NC(=O)c1cc(-c2cnn(C(c3ccc(C(F)(F)F)nc3)C(C)C)c2)cn2nc(N)nc12 (single isomer, unassigned) [Example I-74]
2.4 nM	1.1 nM	CC[C@H](C)NC(=O)c1cc(-c2cnn([C@H](c3ccc(C(F)(F)F)nc3)C(C)C)c2)cn2nc(N)nc12 (single isomer, unassigned) [Example I-75]
6.9 nM	5.9 nM	CC[C@H](C)NC(=O)c1cc(-c2cnn(C(c3ccc(C(F)(F)F)nc3)C3CCOCC3)c2)cn2nc(N)nc12 (single isomer, unassigned) [Example I-77]
1.7 nM	0.7 nM	CC[C@H](C)NC(=O)c1cc(-c2cnn(C(c3ccc(C(F)(F)F)nc3)C3CCOCC3)c2)cn2nc(N)nc12 (single isomer, unassigned) [Example I-78]
0.5 nM	0.9 nM	CC[C@H](C)NC(=O)c1cc(-c2cnn(C(c3ccc(C(F)(F)F)nc3)C3CCNCC3)c2)cn2nc(N)nc12 (single isomer, unassigned) [Example I-82]
0.7 nM	0.3 nM	CC[C@H](C)NC(=O)c1cc(-c2cnn(C(c3ccc(C(F)(F)F)nc3)C3CCNCC3)c2)cn2nc(N)nc12 (single isomer, unassigned) [Example I-83]
160 nM	100 nM	CCC(c1ccc(OCC(F)(F)F)nc1)n1cc(-c2cc(C(=O)N[C@@H](C)CC)c3nc(N)nn3c2)cn1 (single isomer, unassigned) [Example I-86]
16 nM	1.3 nM	CCC(c1ccc(OCC(F)(F)F)nc1)n1cc(-c2cc(C(=O)N[C@@H](C)CC)c3nc(N)nn3c2)cn1 (single isomer, unassigned) [Example I-87]
2000 nM	230 nM	CC[C@H](C)NC(=O)c1cc(-c2cnn(C(c3ccc(OCC(F)(F)F)nc3)C(C)C)c2)cn2nc(N)nc12 (single isomer, unassigned) [Example I-89]
34 nM	3 nM	CC[C@H](C)NC(=O)c1cc(-c2cnn(C(c3ccc(OCC(F)(F)F)nc3)C(C)C)c2)cn2nc(N)nc12 (single isomer, unassigned) [Example I-90]
